Experiments:
Assay type in all cases: cell-based
Settings in all cases: for SI / Qa: A = MIT; for Qa: A alone where Qb = 0
[1] = system: Candida albicans (C. albicans—ATCC 10231); assay: Synergy test, microtiter plate high resolution MIC assay, PDB medium, yeast
Text: (§1) One measure of synergism is the industrially accepted method described by Kull, F. C.; Eisman, P. C.; Sylwestrowicz, H. D. and Mayer, R. L., in Applied Microbiology 9:538-541 (1961), using the ratio determined by the formula: Qa/QA+Qb/QB=Synergy Index(“SI”) wherein: • QA=concentration of compound A (first component) in ppm, acting alone, which produced an end point (MIC of Compound A). • Qa=concentration of compound A in ppm, in the mixture, which produced an end point. • QB=concentration of compound B (second component) in ppm, acting alone, which produced an end point (MIC of Compound B). • Qb=concentration of compound B in ppm, in the mixture, which produced an end point.
(§2) When the sum of Qa/QA and Qb/QB is greater than one, antagonism is indicated. […] The lower the SI, the greater is the synergy shown by that particular mixture. The minimum inhibitory concentration (MIC) of a microbicide is the lowest concentration tested under a specific set of conditions that prevents the growth of the tested microorganisms.
(§3) Synergy tests were conducted using standard microtiter plate assays with media designed for optimal growth of the test microorganism. Minimal salt medium supplemented with 0.2% glucose and 0.1% yeast extract (M9GY medium) was used for testing bacteria; Potato Dextrose Broth (PDB medium) was used for testing yeast and mold. In this method, a wide range of combinations of microbicides and other personal care raw materials was tested by conducting high resolution MIC assays in the presence of various concentrations of CMIT/MIT, MIT, or BIT. High resolution MICs were determined by adding varying amounts of microbicide to one column of a microtitre plate and doing subsequent […] dilutions using an automated liquid handling system to obtain a series of endpoints ranging from 2 ppm to 10,000 ppm active ingredient.
(§4) The synergy of the combinations of the present invention was determined against a bacterium, Escherichia coli (E. coli—ATCC #8739), a yeast, Candida albicans (C. albicans—ATCC 10231), and a mold, Aspergillus niger (A. niger—ATCC 16404). The bacteria were used at a concentration of about 5×10^6 bacteria per mL and the yeast and mold at 5×10^5 fungi per mL. These microorganisms are representative of natural contaminants in many consumer and industrial applications. […] (yeast and mold) or 30° C. (bacteria).

[2] = system: Aspergillus niger (A. niger—ATCC 16404); assay: Synergy test, microtiter plate high resolution MIC assay, PDB medium, mold
Text: as §1, §2, §3, §4

[3] = system: Escherichia coli (E. coli—ATCC #8739); assay: Synergy test, microtiter plate high resolution MIC assay, M9GY medium, bacterium
Text: as §1, §2, §3, §4

[4] = C. albicans 10231 - PDB (1 day), B = Propylene glycol monolaurate
[5] = C. albicans 10231 - PDB (2 days), B = Glyceryl mono dicaprylate
[6] = C. albicans 10231 - PDB (6 days), B = Ethylhexylglycerin
[7] = C. albicans 10231 - PDB (6 days), B = Glyceryl caprate
[8] = C. albicans 10231 - PDB (6 days), B = Lauric arginate
[9] = C. albicans 10231 - PDB (6 days), B = Myristamidopropyl PG-dimonium chloride phosphate
[10] = C. albicans 10231 - PDB (6 days), B = Propylene glycol caprylate
[11] = A. niger 16404 - PDB (3 days), B = Myristamidopropyl PG-dimonium chloride phosphate
[12] = A. niger 16404 - PDB (3 days), B = Propylene glycol caprylate
[13] = A. niger 16404 - PDB (10 days), B = Ethylhexylglycerin
[14] = A. niger 16404 - PDB (10 days), B = Glyceryl caprate
[15] = A. niger 16404 - PDB (10 days), B = Glyceryl mono dicaprylate
[16] = A. niger 16404 - PDB (10 days), B = Lauric arginate
[17] = A. niger 16404 - PDB (10 days), B = Propylene glycol monolaurate
[18] = E. coli 8739 - M9GY (1 day), B = Glyceryl caprate
[19] = E. coli 8739 - M9GY (1 day), B = Glyceryl mono dicaprylate
[20] = E. coli 8739 - M9GY (1 day), B = Lauric arginate
[21] = E. coli 8739 - M9GY (1 day), B = Myristamidopropyl PG-dimonium chloride phosphate
[22] = E. coli 8739 - M9GY (1 day), B = Propylene glycol caprylate
[23] = E. coli 8739 - M9GY (1 day), B = Propylene glycol monolaurate
[24] = E. coli 8739 - M9GY (6 days), B = Ethylhexylglycerin

Q: Which “Synergy Index (SI) = Qa/QA+Qb/QB” value ([1]; C. albicans 10231, PDB, 6 days) does the source give for `Cn1sccc1=O` [MIT, 2-methyl-4-isothiazolin-3-one] here?
A: 1.00

Q: What about the “MIC of the component acting alone (QA or QB)” value (shortened to “MIC … (QA or QB)”) ([1]; C. albicans 10231, PDB, 6 days, 25° C.) of the same molecule?
A: 200.00 ppm

Q: And the SI [1, 4]?
A: 1.00

Q: What about the Qa [1, 4] of the same molecule?
A: 100.00 ppm

Q: And the SI [1, 5]?
A: 1.00

Q: What about the Qa [1, 5] of the same molecule?
A: 150.00 ppm

Q: And the SI [1, 6]?
A: 1.00

Q: What about the Qa [1, 6] of the same molecule?
A: 200.00 ppm

Q: And the SI [1, 7]?
A: 1.00

Q: What about the Qa [1, 7] of the same molecule?
A: 200.00 ppm

Q: What about the SI [1, 8] of the same molecule?
A: 1.00

Q: And the Qa [1, 8]?
A: 200.00 ppm

Q: What about the SI [1, 9] of the same molecule?
A: 1.00

Q: And the Qa [1, 9]?
A: 200.00 ppm

Q: What about the SI [1, 10] of the same molecule?
A: 1.00

Q: What about the Qa [1, 10] of the same molecule?
A: 200.00 ppm

Q: What about the MIC ([1]; Candida albicans, ATCC10231, 144 h, read-out: MIC of the component acting alone (QA or QB)) of the same molecule?
A: 200 mg/L

Q: And the “Synergy Index (SI) = Qa/QA+Qb/QB” value ([2]; A. niger 16404, PDB, 10 days)?
A: 1.00

Q: And the “MIC … (QA or QB)” value ([2]; A. niger 16404, PDB, 10 days, 25° C.)?
A: 500.00 ppm

Q: And the SI [2, 11]?
A: 1.00

Q: And the Qa [2, 11]?
A: 400 ppm

Q: And the SI [2, 12]?
A: 1.00

Q: And the Qa [2, 12]?
A: 400 ppm

Q: And the SI [2, 13]?
A: 1.00

Q: And the Qa [2, 13]?
A: 750 ppm

Q: What about the SI [2, 14] of the same molecule?
A: 1.00

Q: And the Qa [2, 14]?
A: 500 ppm

Q: And the SI [2, 15]?
A: 1.00

Q: And the Qa [2, 15]?
A: 500 ppm

Q: What about the SI [2, 16] of the same molecule?
A: 1.00

Q: What about the Qa [2, 16] of the same molecule?
A: 750 ppm

Q: And the SI [2, 17]?
A: 1.00

Q: And the Qa [2, 17]?
A: 750.00 ppm

Q: What about the MIC ([2]; Aspergillus niger, ATCC16404, 240 h, read-out: MIC of the component acting alone (QA or QB)) of the same molecule?
A: 500 mg/L

Q: And the “Synergy Index (SI) = Qa/QA+Qb/QB” value ([3]; E. coli 8739, M9GY, 1 day)?
A: 1.00

Q: What about the “MIC … (QA or QB)” value ([3]; E. coli 8739, M9GY, 1 day, 30° C.) of the same molecule?
A: 30.00 ppm

Q: And the SI [3, 18]?
A: 1.00

Q: What about the Qa [3, 18] of the same molecule?
A: 30.00 ppm

Q: What about the SI [3, 19] of the same molecule?
A: 1.00

Q: And the Qa [3, 19]?
A: 30.00 ppm

Q: What about the SI [3, 20] of the same molecule?
A: 1.00

Q: What about the Qa [3, 20] of the same molecule?
A: 30.00 ppm

Q: And the SI [3, 21]?
A: 1.00

Q: What about the Qa [3, 21] of the same molecule?
A: 30.00 ppm

Q: What about the SI [3, 22] of the same molecule?
A: 1.00

Q: And the Qa [3, 22]?
A: 30.00 ppm

Q: What about the SI [3, 23] of the same molecule?
A: 1.00

Q: And the Qa [3, 23]?
A: 30.00 ppm

Q: What about the SI [3, 24] of the same molecule?
A: 1.00

Q: What about the Qa [3, 24] of the same molecule?
A: 40.00 ppm

Q: What about the MIC ([3]; Escherichia coli, ATCC8739, 24 h, read-out: MIC of the component acting alone (QA or QB)) of the same molecule?
A: 30 mg/L

Source: US8778982B2, “Synergistic microbicidal compositions” (Rohm and Haas Company, priority 2007, dated 2014)
